Test results reported in patent US8569264B2, “Antibacterial 4,5-substituted aminoglycoside analogs having multiple substituents” (ISIS Pharmaceuticals, Inc., priority 2005, dated 2013).
Converted amounts (≈) assume the structure as drawn.

Experiments:
S. aureus ATCC 13709 = assay: MIC, S. aureus ATCC 13709; type: cell-based; settings: for MIC S. aureus ATCC 13709: Example 111; for MIC: Staphylococcus aureus
Protocol: (§1) The MIC assays are carried out in 150 μL volume in duplicate in 96-well clear flat-bottom plates. The bacterial suspension from an overnight culture growth in appropriate medium is added to a solution of test compound in 4% DMSO in water. Final bacterial inoculum is approximately 10^5-10^6 CFU/well. […] Both ampicillin and tetracycline are used as antibiotic-positive controls in each screening assay for S. pyogenes, E. coli imp-, E. coli, S. aureus, E. faecalis, K. pneumoniae and P. vulgaris. Ciprofloxacin is used as an antibiotic positive control in each screening assay for P. aeruginosa.
(§2) The following compounds were prepared using methods illustrated in the previous examples. The compounds were also examined in standard bacterial assays against E. Coli, S. Aureus, P. aurginosa, K. pneumoniae, P. vulgaris, and A. baumannii to determine activities. Each of the bacterial cultures that are available from ATCC (www.atcc.org) is identified by its ATCC number. A. baumannii is gentamicin sensitive Acinetobacter baumannii #2 from Walter Reed.

[1] = system: gentamicin sensitive Acinetobacter baumannii #2 from Walter Reed; assay: MIC, A. baumannii WReed 2; type: cell-based; settings: for MIC: Acinetobacter baumannii
Protocol: as §1, §2

E. coli ATCC 25922 = assay: MIC, E. coli ATCC 25922; type: cell-based; settings: for MIC E. coli ATCC 25922: Example 111; for MIC: Escherichia coli
Protocol: as §1, §2

E. Coli = assay: MIC, E. Coli; type: cell-based
Summary of the method: (§3)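 Broth microdilution in duplicate, 150 μL: overnight-culture bacteria were added to compound in 4% DMSO in water. Final inoculum was about 10^5–10^6 CFU/well.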

S. Aureus = assay: MIC, S. Aureus; type: cell-based
Summary of the method: as §3

P. vulgaris ATCC 8427 = assay: MIC, P. vulgaris ATCC 8427; type: cell-based; settings: for MIC P. vulgaris ATCC 8427: Example 111; for MIC: Proteus vulgaris
Protocol: as §1, §2

K. pneumoniae ATCC 10031 = assay: MIC, K. pneumoniae ATCC 10031; type: cell-based; settings: for MIC K. pneumoniae ATCC 10031: Example 111; for MIC: Klebsiella pneumoniae
Protocol: as §1, §2

P. aurginosa ATCC 25416 = assay: MIC, P. aurginosa ATCC 25416; type: cell-based
Protocol: as §1, §2

P. aurginosa ATCC 29248 = assay: MIC, P. aurginosa ATCC 29248; type: cell-based
Protocol: as §1, §2

[2] = system: E. coli S30 bacterial extract (pBestLuc firefly luciferase reporter); assay: Coupled bacterial transcription/translation assay; type: biochemical; settings: Example 105; read-out: Trans/Trans IC50
Summary of the method: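 Coupled transcription/translation of firefly luciferase from 1 μg pBestLuc (tac promoter) in E. coli S30 extract, with or without test compound. Reaction 35 min at 37° C., then functional luciferase detected by luminescence.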

[3] = target: 16S ribosomal subunit RNA target; assay: Mass spectrometry based binding assay (FTICR), 16S; settings: FTICR mass spectrometry; run at 100 nM RNA; Example 105
Summary of the method: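 Binding to the 16S ribosomal subunit RNA target was measured by FTICR mass spectrometry. Ligands or ligand mixtures were prepared at several concentrations in 10 μL of aqueous 100 mM ammonium acetate buffer with 33% isopropyl alcohol. Samples were infused at 1 μL/min into a negative-mode electrospray source, and ions were held 1 sec in an RF-only hexapole. Complex/free RNA ratios versus ligand concentration were fitted to a binding polynomial to obtain KD.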

[4] = target: 18S ribosomal subunit RNA target; assay: Mass spectrometry based binding assay (FTICR), 18S; settings: FTICR mass spectrometry; Example 105
Summary of the method: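 Ligands at varying concentrations were mixed with 2.5 or 5 μM RNA in 100 mM ammonium acetate with 33% isopropyl alcohol, then analysed by negative-mode ESI-FTICR. Complex/free RNA ion ratios plotted against ligand concentration were fitted to a second- or higher-order binding polynomial to give KD.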

MIC (S. aureus ATCC 13709; ATCC13709, Example 110) | MIC ([1]; Example 110) | MIC (E. coli ATCC 25922; ATCC25922, Example 110) | MIC (P. vulgaris ATCC 8427; ATCC8427, Example 110) | MIC (K. pneumoniae ATCC 10031; ATCC10031, Example 110) | MIC (P. aurginosa ATCC 25416; Example 110) | MIC (P. aurginosa ATCC 29248; Example 110) | SMILES | MIC S. aureus ATCC 13709 (S. aureus ATCC 13709) | MIC A. baumannii WReed 2 ([1]; Example 111) | MIC E. coli ATCC 25922 (E. coli ATCC 25922) | MIC P. vulgaris ATCC 8427 (P. vulgaris ATCC 8427) | MIC K. pneumoniae ATCC 10031 (K. pneumoniae ATCC 10031) | MIC P. aurginosa ATCC 25416 (P. aurginosa ATCC 25416; Example 111) | MIC P. aurginosa ATCC 29248 (P. aurginosa ATCC 29248; Example 111) | other results
– | – | – | – | – | – | – | NCC1OC(OC2C(CO)OC(OC3C(O)C(N)CC(N)C3OC3OC(CNCCCc4ccccc4)C(O)C(O)C3N)C2O)C(N)C(O)C1O (stereo not drawn) [Compound 15l] | 0.2 to 0.3 µM | 10 to 20 µM | 1.3 to 2.5 µM | >40 µM | 0.6 to 1.3 µM | >40 µM | >40 µM | MIC E. Coli. (E. Coli; Example 109): 0.6 to 1.2 µM; MIC S. Aureus (S. Aureus; Example 109): 0.3 to 0.6 µM
– | – | – | – | – | – | – | NCC1OC(OC2C(CO)OC(OC3C(O)C(N)CC(N)C3OC3OC(CNCCc4cccc(C(F)(F)F)c4)C(O)C(O)C3N)C2O)C(N)C(O)C1O (stereo not drawn) [Compound 15u] | 0.3 to 0.6 µM | 10 to 20 µM | 1.3 to 2.5 µM | >40 µM | 0.6 to 1.3 µM | >40 µM | >40 µM | –
0.6 to 1.2 µM (≈ 0.518 to 1.04 µg/mL) | 0.6 to 1.3 µM (≈ 0.518 to 1.12 µg/mL) | 0.6 to 1.3 µM (≈ 0.518 to 1.12 µg/mL) | 0.6 to 1.3 µM (≈ 0.518 to 1.12 µg/mL) | < 0.6 µM | 0.6 to 1.3 µM (≈ 0.518 to 1.12 µg/mL) | 1.3 to 2.5 µM (≈ 1.12 to 2.16 µg/mL) | NCC[C@H](O)C(=O)N[C@@H]1C[C@H](N)[C@@H](O[C@H]2O[C@H](CO)[C@@H](O)[C@H](O)[C@H]2N)[C@H](O[C@@H]2O[C@H](CO)[C@@H](O[C@H]3O[C@@H](CN)[C@@H](O)[C@H](O)[C@H]3N)[C@H]2OCCNCCc2ccccc2)[C@H]1O [Compound 46a, N-1-haba-2″-O-phenylethylaminoethyl paromomycin] | – | – | – | – | – | – | – | MIC (S. aureus ATCC 13709; ATCC13709, Example 111): 0.2 to 0.3 µM (≈ 0.173 to 0.259 µg/mL); MIC ([1]; Example 111): 10 to 20 µM (≈ 8.64 to 17.3 µg/mL); MIC (E. coli ATCC 25922; ATCC25922, Example 111): 1.3 to 2.5 µM (≈ 1.12 to 2.16 µg/mL); MIC (P. vulgaris ATCC 8427; ATCC8427, Example 111): 5 to 10 µM (≈ 4.32 to 8.64 µg/mL); MIC (K. pneumoniae ATCC 10031; ATCC10031, Example 111): 0.3 to 0.6 µM (≈ 0.259 to 0.518 µg/mL); MIC (P. aurginosa ATCC 25416; Example 111): 10 to 20 µM (≈ 8.64 to 17.3 µg/mL); MIC (P. aurginosa ATCC 29248; Example 111): 5 to 10 µM (≈ 4.32 to 8.64 µg/mL)
1.2 to 2.5 µM (≈ 0.98 to 2.04 µg/mL) | 2.5 to 5 µM (≈ 2.04 to 4.08 µg/mL) | 5 to 10 µM (≈ 4.08 to 8.17 µg/mL) | 5 to 10 µM (≈ 4.08 to 8.17 µg/mL) | 1.3 to 2.5 µM (≈ 1.06 to 2.04 µg/mL) | 1.3 to 2.5 µM (≈ 1.06 to 2.04 µg/mL) | 5 to 10 µM (≈ 4.08 to 8.17 µg/mL) | NCCCNCCO[C@H]1[C@H](O[C@@H]2[C@@H](O)[C@H](NC(=O)[C@@H](O)CCN)C[C@H](N)[C@H]2O[C@H]2O[C@H](CO)[C@@H](O)[C@H](O)[C@H]2N)O[C@H](CO)[C@H]1O[C@H]1O[C@@H](CN)[C@@H](O)[C@H](O)[C@H]1N [Compound 46b, N-1-haba-2″-O-(1,3-diamino)ethyl paromomycin] | – | – | – | – | – | – | – | –
– | – | – | – | – | – | – | CN(C)CCOC[C@H]1O[C@@H](O[C@@H]2[C@@H](O)[C@H](N)C[C@H](N)[C@H]2O[C@H]2O[C@H](CO)[C@@H](O)[C@H](O)[C@H]2N)[C@H](O)[C@@H]1O[C@H]1O[C@@H](CN)[C@@H](O)[C@H](O)[C@H]1N [Compound 54, 5″-O-(2-N,N-dimethylaminoethyl) paromomycin] | – | – | – | – | – | – | – | IC50 [2]: 0.3 µM; MIC E. Coli. (E. Coli; Example 105): 6 to 12 µM; Kd [3]: 4.1 µM; MIC S. Aureus (S. Aureus; Example 105): 25 to 50 µM; Kd [4]: 68 µM
